These results are taken from ChEMBL document CHEMBL1201862, “PubChem BioAssay data set” (2004).

The target in assay [1] is Genome polyprotein (dengue virus type 2, UniProt P29990). Kind of assay: Dengue-2 NS5 methyltransferase inhibitors, primary screen, biochemical, confirmation dose response (AID 588689). It counts as functional.
Assay [2] can be described thus: inhibitors of HIV Env-driven cell fusion, dose response, cherry-pick (AID 652057). Format: functional, cell-based.
Assay [3] is described as follows: ZM109 Env clade C HIV-1 fusion inhibitors, dose response, HeLa effector, CEM target cells, luciferase, cherry-pick (AID 652058). It counts as functional, cell-based.
Assay [4] can be described thus: off-target signal loss in HeLa-CEM21 co-culture – HeLa F-luc CTL cells, cherry-picked, counter-screen for HIV-1 Env fusion inhibitor project, dose response (AID 652040).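 Further: potency for signal decrease marking cytotoxic or nonspecific inhibition.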 It counts as functional, cell-based. In general terms: A counterscreen serves to expose hits that act by an unwanted route or on another target.
A short description of assay [5]: inhibitors of clade B AD8 Env fusion, dose response, cell-based, cherry-pick (AID 652062).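 Further: luciferase signal from cell-cell fusion driven by HIV-1 clade B AD8 Env; potency is for inhibitors of fusion seen as a drop in luminescence.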 It counts as functional.
In assay [6] the target is Induced myeloid leukemia cell differentiation protein Mcl-1 (Homo sapiens, UniProt Q07820). Format: functional.
For assay [7], the target named is Cytochrome P450 2D6 (Homo sapiens, UniProt P10635).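 Further: CYP2D6 member of a cytochrome P450 panel assay.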
Assay [8] has as its target T1, Cytochrome P450 1A2 (Homo sapiens, UniProt P05177).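 Further: PubChem cytochrome P450 panel assay, CYP1A2 panel member.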
T1 sequence (P05177 whole entry): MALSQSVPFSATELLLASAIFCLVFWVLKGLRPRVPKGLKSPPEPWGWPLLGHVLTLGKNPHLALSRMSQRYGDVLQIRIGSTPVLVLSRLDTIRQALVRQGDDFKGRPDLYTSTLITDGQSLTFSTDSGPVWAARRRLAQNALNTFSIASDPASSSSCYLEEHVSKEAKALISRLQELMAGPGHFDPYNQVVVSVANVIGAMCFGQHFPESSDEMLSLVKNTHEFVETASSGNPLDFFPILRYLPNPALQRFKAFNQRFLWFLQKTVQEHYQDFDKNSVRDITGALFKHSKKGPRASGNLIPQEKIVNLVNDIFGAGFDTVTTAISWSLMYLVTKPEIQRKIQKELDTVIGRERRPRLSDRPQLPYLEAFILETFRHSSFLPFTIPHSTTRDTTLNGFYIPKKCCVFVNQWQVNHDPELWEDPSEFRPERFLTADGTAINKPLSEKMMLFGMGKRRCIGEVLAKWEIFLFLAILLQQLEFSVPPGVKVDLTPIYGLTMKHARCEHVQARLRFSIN

Assay [9] has as its system BJ. Kind of assay: cytotoxicity toward BJ-TERT fibroblasts, dose response, cell-based, RAS-independent, luminescence (AID 1933). It counts as functional, Homo sapiens. To be noted: Homo sapiens, BJ.
For assay [10], the system named is BJ. Kind of assay: cells. The conditions noted are these: Homo sapiens, BJ. It counts as functional, cell-based, Homo sapiens.
Assay [11] in a line: inhibitors of intracellular T. cruzi replication, confirmation, NIH3T3 host cells, beta-gal luminescence (AID 2044).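 Further: intracellular parasites grown in NIH/3T3 mouse fibroblasts as host cells; luminescent beta-galactosidase reporter signal from transgenic T. cruzi replicating inside host cells; inhibitors lower the luminescence signal.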 Format: functional, cell-based.
Assay [12] is described as follows: cytotoxicity toward NIH3T3 fibroblasts, dose response, counter-screen, cell-based, ATP luminescence, mouse fibroblasts (AID 2010).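 Further: cells exposed to compound for about 90 hours before reading.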 It counts as functional.
For assay [13], the system named is BJ. Kind of assay: cytotoxicity toward BJ-TERT-LT-ST fibroblasts, dose response, cell-based, RAS-independent, luminescence (AID 1935).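 Further: BJ fibroblasts immortalized with TERT plus LT and ST oncogenes.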 It counts as functional, Homo sapiens. The conditions noted are these: Homo sapiens, BJ.
A short description of assay [14]: cytotoxicity toward DRD oncogenic fibroblasts, dose response, cell-based, non-viral oncogenic, luminescence (AID 1934). It counts as functional. The conditions noted are these: Homo sapiens.
For assay [15], the target named is Glucose-6-phosphate 1-dehydrogenase (Homo sapiens, UniProt P11413). Kind of assay: human G6PD enzyme inhibitors, dose response, selectivity assay for P. falciparum G6PD inhibitor project, biochemical, fluorescence (AID 504792). It counts as functional.
In assay [16] the target is T2, Heat shock factor protein 1 (Mus musculus, UniProt P38532).
T2 sequence (P38532 whole entry): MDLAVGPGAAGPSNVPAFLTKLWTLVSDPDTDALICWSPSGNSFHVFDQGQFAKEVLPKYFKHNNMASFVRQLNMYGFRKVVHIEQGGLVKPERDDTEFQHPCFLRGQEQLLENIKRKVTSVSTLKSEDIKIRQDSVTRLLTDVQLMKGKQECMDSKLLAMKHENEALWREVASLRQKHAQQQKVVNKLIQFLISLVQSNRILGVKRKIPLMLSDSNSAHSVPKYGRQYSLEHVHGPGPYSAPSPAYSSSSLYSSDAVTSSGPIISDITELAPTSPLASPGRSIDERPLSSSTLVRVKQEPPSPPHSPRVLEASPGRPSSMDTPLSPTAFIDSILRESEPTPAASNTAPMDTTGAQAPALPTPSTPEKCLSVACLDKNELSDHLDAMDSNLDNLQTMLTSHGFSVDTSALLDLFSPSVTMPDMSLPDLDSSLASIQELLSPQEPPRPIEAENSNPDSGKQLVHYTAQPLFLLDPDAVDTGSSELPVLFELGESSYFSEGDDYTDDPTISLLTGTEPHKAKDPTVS
Kind of assay: HSF1 potentiators in luciferase reporter cells, confirmation, cell-based, NIH3T3, luminescence, dose retest (AID 435004).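 Further: stress induced by proteasome inhibitor MG132 added 30 min after compound; luciferase reporter driven by HSF1 response element in NIH3T3 cells; actives raise luminescence as potentiators of the MG132 stress response.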 Format: functional. (In general: A reporter such as luciferase makes a cellular process visible.)

Assay [17] has as its target T3, Replicative DNA helicase DnaB (Mycobacterium tuberculosis, UniProt P9WMR3).
T3 sequence (P9WMR3 whole entry): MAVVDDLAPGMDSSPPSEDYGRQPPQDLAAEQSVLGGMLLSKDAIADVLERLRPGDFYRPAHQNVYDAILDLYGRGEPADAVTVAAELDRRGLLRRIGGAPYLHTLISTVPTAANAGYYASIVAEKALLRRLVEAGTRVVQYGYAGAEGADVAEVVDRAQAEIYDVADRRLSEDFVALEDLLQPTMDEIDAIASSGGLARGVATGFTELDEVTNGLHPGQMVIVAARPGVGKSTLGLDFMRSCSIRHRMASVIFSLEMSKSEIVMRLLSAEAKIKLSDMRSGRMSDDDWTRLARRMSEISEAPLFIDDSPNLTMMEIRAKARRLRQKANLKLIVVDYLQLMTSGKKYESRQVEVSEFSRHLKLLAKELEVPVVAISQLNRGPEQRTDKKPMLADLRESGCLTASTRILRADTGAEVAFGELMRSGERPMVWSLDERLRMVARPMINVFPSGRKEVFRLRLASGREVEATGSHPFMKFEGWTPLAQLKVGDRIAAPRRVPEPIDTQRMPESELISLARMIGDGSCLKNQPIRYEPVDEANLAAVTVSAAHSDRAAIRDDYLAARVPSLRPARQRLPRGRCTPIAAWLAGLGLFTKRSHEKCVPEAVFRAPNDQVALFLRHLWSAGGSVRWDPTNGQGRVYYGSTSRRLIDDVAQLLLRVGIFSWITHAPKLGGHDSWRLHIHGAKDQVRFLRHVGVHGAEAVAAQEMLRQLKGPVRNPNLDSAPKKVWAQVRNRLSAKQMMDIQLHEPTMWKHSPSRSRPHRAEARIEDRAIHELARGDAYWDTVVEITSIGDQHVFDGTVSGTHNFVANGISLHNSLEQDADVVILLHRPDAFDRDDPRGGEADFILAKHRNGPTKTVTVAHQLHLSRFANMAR
Kind of assay: DnaB intein splicing inhibitors, dose response, biochemical, cell-free fluorescence (AID 449749). Format: functional.

The target in assay [18] is T4, Protein RecA (Mycobacterium tuberculosis, UniProt P9WHJ3).
T4 sequence (P9WHJ3 whole entry): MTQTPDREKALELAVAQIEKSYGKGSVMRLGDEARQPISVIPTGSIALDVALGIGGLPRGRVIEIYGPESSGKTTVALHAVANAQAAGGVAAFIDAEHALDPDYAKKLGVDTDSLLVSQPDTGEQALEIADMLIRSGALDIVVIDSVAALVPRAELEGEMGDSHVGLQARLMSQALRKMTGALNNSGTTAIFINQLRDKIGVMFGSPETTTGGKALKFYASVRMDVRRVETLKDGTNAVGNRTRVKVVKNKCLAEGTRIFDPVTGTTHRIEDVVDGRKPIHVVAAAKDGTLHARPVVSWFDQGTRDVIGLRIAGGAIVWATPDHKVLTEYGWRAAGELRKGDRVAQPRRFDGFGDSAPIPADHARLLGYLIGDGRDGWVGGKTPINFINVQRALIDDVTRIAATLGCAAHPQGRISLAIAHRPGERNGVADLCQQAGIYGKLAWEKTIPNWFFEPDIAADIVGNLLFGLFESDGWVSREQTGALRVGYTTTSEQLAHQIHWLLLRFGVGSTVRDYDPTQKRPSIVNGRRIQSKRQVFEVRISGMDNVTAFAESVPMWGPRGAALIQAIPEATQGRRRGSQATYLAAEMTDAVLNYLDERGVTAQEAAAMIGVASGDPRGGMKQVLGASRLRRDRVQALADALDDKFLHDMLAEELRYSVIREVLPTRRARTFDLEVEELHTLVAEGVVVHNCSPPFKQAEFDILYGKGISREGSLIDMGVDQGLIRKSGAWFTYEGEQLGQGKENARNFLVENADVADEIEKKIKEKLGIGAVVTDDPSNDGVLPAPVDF
Kind of assay: Fluorescence Cell-Free Homogeneous Dose Retest to Identify Inhibitors of RecA-Intein Splicing Activity. [Related pubchem assays (depositor defined):AID2097, AID2223, AID489010, AID492950]. Format: functional.

Assay [19] has as its system H9c2. Kind of assay: cells. Format: functional, cell-based. To be noted: Rattus norvegicus, H9c2, Myocardium.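 Further: confirmatory concentration-response retest of ultra-high-throughput screening hits for modulation of myocardial damage; cell death induced by hydrogen peroxide oxidative stress; compound pretreatment for 60 min then peroxide exposure for 2 h; potency is for protecting the cells against peroxide damage rather than for killing them.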
For assay [20], the target named is T5, Galanin receptor type 3 (Homo sapiens, UniProt O60755).
T5 sequence (O60755 whole entry): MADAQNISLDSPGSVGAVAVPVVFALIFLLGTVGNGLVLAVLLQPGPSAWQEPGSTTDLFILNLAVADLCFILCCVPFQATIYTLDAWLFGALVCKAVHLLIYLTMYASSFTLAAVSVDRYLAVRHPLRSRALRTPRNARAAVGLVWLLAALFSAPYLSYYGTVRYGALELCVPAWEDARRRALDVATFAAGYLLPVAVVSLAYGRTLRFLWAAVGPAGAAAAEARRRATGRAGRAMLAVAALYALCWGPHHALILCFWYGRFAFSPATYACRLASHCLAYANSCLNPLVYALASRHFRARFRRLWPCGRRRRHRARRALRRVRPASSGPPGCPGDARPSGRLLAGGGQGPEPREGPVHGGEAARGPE
Kind of assay: Fluorescence-based cell-based primary high throughput dose response assay to identify antagonists of the Galanin Receptor 3 (GalR3). Format: functional.

Assay [21] can be described thus: cells. Format: functional, cell-based. The conditions noted are these: HEK-CNG.
For assay [22], the target named is T6, Carboxy-terminal domain RNA polymerase II polypeptide A small phosphatase 1 (Homo sapiens, UniProt Q9GZU7).
T6 sequence (Q9GZU7 whole entry): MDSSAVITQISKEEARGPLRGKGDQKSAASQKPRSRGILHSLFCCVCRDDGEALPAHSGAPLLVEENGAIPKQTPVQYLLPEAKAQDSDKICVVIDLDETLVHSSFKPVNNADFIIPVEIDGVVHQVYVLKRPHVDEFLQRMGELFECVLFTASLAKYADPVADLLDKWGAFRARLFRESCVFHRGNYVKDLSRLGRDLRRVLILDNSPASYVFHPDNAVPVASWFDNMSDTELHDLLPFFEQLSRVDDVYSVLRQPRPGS
Kind of assay: inhibitors of CTDSP1, concentration-response testing, biochemical assay, absorbance-based, actives from ultra-high-throughput screening (AID 540297). Format: functional.

Assay [23] addresses DNA (cytosine-5)-methyltransferase 1 (Homo sapiens, UniProt P26358). Kind of assay: DNMT1 methyltransferase inhibitors, confirmation, biochemical, fluorescent molecular beacon (AID 602386). It counts as functional.

The IC50 is the concentration at which inhibition is half-maximal. The AC50 is the concentration at which the activity in the assay is half-maximal. Broadly, the EC50 is the concentration at which the effect is half-maximal.

Activity calls are given as the source filed them.

Sequence of Genome polyprotein (P29990 2492-3391 limits assumed): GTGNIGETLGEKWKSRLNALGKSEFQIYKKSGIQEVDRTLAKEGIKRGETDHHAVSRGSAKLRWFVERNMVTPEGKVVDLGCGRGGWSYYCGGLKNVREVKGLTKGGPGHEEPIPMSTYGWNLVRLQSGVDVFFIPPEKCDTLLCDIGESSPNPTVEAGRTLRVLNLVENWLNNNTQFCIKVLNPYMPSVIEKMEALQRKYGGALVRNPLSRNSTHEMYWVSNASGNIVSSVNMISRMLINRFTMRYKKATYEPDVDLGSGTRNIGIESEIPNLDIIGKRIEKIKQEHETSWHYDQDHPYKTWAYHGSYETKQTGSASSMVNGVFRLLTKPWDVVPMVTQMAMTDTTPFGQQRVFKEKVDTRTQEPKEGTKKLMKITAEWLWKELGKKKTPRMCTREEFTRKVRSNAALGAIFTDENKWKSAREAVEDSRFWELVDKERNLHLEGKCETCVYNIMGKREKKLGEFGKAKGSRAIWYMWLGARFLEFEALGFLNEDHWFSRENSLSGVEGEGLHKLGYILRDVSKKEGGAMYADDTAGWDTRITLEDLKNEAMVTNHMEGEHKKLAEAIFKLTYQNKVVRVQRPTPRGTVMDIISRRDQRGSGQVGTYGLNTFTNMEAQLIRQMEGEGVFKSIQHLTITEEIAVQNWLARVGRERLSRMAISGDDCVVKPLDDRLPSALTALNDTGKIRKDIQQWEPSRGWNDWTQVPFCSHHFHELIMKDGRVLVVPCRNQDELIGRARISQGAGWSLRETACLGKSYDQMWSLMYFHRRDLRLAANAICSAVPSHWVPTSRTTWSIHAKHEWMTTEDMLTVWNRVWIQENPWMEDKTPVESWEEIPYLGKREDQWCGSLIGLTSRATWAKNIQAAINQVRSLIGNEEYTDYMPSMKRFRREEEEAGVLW
Sequence of Glucose-6-phosphate 1-dehydrogenase (P11413 whole entry): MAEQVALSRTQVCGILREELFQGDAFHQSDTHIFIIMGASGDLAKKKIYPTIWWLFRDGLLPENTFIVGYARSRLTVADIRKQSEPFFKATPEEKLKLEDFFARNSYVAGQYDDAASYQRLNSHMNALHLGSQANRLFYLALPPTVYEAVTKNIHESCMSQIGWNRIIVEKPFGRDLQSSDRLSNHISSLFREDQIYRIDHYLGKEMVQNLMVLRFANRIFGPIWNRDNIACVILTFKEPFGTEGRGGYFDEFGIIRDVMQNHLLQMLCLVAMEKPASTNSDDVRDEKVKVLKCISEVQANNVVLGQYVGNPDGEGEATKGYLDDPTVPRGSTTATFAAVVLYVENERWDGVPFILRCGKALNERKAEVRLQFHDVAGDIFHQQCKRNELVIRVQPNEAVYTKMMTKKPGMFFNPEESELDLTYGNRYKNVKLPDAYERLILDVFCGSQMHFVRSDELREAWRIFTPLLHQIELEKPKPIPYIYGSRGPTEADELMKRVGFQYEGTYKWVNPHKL
Sequence of Induced myeloid leukemia cell differentiation protein Mcl-1 (Q07820 whole entry): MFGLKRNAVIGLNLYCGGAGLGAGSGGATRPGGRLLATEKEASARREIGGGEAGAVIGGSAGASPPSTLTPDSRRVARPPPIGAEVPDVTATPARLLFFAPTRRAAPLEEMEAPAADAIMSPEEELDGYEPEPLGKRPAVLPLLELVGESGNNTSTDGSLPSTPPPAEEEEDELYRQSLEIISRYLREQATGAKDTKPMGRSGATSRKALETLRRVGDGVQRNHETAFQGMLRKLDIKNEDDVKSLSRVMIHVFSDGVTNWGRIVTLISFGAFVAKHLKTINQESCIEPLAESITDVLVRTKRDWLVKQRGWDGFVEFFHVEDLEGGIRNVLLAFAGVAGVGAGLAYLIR
Sequence of Cytochrome P450 2D6 (P10635 whole entry): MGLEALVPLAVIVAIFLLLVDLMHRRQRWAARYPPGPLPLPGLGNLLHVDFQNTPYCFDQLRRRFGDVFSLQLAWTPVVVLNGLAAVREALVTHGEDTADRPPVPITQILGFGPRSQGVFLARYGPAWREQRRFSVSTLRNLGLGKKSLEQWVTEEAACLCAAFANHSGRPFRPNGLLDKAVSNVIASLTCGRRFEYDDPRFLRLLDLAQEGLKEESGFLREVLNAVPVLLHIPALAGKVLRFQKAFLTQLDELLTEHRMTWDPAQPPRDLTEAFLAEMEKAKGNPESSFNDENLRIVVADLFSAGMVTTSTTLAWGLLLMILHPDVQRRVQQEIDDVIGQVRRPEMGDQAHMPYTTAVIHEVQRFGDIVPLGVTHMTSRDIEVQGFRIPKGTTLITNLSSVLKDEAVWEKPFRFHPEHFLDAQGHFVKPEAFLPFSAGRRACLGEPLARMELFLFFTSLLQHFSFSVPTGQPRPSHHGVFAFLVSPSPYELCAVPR
Sequence of DNA (cytosine-5)-methyltransferase 1 (P26358 whole entry): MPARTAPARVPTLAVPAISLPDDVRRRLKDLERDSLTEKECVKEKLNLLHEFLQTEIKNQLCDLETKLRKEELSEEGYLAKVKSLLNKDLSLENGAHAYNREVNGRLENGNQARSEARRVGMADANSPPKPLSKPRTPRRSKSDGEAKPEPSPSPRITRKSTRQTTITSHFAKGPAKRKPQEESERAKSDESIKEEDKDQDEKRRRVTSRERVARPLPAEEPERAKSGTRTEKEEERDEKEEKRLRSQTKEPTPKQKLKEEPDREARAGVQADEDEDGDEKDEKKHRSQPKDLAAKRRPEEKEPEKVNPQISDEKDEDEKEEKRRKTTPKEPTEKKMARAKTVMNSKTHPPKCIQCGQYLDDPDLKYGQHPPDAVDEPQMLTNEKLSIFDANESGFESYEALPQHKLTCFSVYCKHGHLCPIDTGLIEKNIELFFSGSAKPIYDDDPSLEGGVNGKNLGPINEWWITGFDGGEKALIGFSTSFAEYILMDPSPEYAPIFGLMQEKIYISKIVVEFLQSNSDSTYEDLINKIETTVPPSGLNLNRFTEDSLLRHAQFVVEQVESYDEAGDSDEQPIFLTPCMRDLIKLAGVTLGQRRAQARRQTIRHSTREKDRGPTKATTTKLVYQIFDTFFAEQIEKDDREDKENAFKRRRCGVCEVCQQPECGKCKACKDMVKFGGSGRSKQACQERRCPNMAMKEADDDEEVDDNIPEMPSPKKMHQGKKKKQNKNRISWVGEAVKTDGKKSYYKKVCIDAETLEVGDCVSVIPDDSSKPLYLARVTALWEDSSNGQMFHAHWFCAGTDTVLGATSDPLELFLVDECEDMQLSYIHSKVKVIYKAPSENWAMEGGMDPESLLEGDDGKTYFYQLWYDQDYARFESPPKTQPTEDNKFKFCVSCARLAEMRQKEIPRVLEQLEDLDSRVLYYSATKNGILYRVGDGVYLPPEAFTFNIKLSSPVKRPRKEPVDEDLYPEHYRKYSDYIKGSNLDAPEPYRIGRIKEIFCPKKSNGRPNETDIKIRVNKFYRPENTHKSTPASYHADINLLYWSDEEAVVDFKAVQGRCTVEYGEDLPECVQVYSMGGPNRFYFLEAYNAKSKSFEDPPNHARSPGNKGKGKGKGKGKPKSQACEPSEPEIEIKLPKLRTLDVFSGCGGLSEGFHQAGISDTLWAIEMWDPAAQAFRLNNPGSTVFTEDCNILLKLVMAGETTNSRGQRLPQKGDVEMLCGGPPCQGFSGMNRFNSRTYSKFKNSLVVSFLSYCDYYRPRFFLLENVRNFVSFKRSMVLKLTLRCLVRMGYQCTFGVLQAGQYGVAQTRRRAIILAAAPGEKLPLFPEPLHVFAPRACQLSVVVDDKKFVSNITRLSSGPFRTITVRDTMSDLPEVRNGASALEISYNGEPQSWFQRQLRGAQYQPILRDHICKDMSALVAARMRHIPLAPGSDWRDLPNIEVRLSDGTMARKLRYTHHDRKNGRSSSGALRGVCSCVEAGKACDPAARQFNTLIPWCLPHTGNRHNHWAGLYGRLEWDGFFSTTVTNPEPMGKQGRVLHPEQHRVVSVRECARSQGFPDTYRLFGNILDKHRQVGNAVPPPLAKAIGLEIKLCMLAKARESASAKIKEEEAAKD

In the case of `O=C(O)CN1C(=O)/C(=C\c2cccc(OCc3ccccc3F)c2)SC1=S`, the concentration for half-maximal inhibition (IC50) in [1] was 38.2 µM (active).
Turning to `CC(C)CCN(N=O)[C@@H](Cc1ccccc1)CN(N=O)[C@@H](Cc1ccccc1)CN(C)N=O`, the AC50 was 5.26 µM (active) in [2], 6.6 µM (active) in assay [3], 34.7 µM (active) in assay [4] and 5.64 µM (active) in [5].
Turning to `O=C(CCN1C(=O)S/C(=C\c2ccccc2)C1=O)Nc1ccc(S(=O)(=O)Nc2nccs2)cc1`, the IC50 was 7.24 µM (active) in assay [6] and > 100 µM (active) in assay [1]. Also, the half-maximal activity concentration (AC50) was 6.31 µM (inconclusive) in assay [7] and 31.6 µM (inconclusive) in assay [8].
Regarding `COCCN(C(=O)COC(=O)C12CC3CC(CC(Cl)(C3)C1)C2)c1c(N)n(Cc2ccccc2)c(=O)[nH]c1=O`, the AC50 in assay [2] is 4.61 µM (active); in [3], 10.2 µM (active); in assay [4] it was 10.7 µM (active); in assay [5], 1.44 µM (active).
For `O=C(COC(=O)c1ccc2c(c1[N+](=O)[O-])C(=O)c1ccccc1C2=O)NC1CC1`, the EC50 in [9] is > 150 µM (not active); in assay [10], > 150 µM (not active); in assay [11], 4.65 µM (active); in [12], 9.54 µM (active); in [13], > 150 µM (not active); in [14] it was > 150 µM (not active). In addition, the EC50 is 17 µM (active) in assay [16] and 0.238 µM (active) in assay [18]. Besides, the IC50 in assay [15] is > 80 µM (inactive). Moreover, in assay [17], the AC50 is 3.81 µM (active).
For `CC1(C)CC(=O)C(=Cc2cn(CCC#N)nc2-c2ccc(F)cc2)C(=O)C1`, in [1], the IC50 was 52.8 µM (active).
In the case of `COc1ccc2nc(O)c(CN(Cc3cccs3)Cc3nnnn3Cc3ccccc3)cc2c1`, the AC50 in [2] is 3.01 µM (active); in assay [3], 5.4 µM (active); in [4], 4.44 µM (active); in [5], 4.94 µM (active).
`COc1cccc(Cn2nc(C(=O)O)c3ccccc3c2=O)c1`: the IC50 is > 79 µM (inactive) in [19] and > 29.9 µM (inactive) in [20]. Moreover, the EC50 in assay [21] was > 29.9 µM (inactive).
Regarding `O=CC(O)C1OC(=O)C(O)C1O` (stereo not drawn), the 50% inhibitory concentration (IC50) in assay [22] was 4.05 µM (active); in assay [23], 14.4 µM (active).
